Data published in article PMC12242667, “Attenuation of 6‑OHDA-Induced Neurotoxicity by 1,2,3-Triazole-Based Sulfonamides through SIRT1 Activity” (ACS Omega, 2025).
Like-named read-outs stand apart in the source and are kept apart here.

How the values were obtained:
[1] = system: normal embryonic lung (MRC-5) cell line; experiment: Cytotoxicity on MRC-5 cell line, MTT assay; format: cell-based; conditions: Homo sapiens, MRC5, MRC-5 cells, 48 h incubation
Description: Normal embryonic lung MRC-5 cells and neuroblastoma SH-SY5Y cells from the American Type Culture Collection (Manassas, VA, USA) were maintained in DMEM with 10% heat-inactivated FBS and 1% penicillin-streptomycin at 37 °C in humidified air containing 5% carbon dioxide.
Cytotoxicity of 1,2,3-triazole-based sulfonamides was evaluated by using a normal embryonic lung (MRC-5) cell line. The MRC-5 cells were cultured in 96-well microtiter plates (Corning Inc., NY, USA) at 5,000–20,000 cells/well and incubated for 24 h at 37 °C in humidified air containing 5% carbon dioxide. Subsequently, various concentrations of 1,2,3-triazole derivatives, doxorubicin (used as a positive control), and DMSO (used as a negative control) were added and incubated for an additional 48 h. MTT reagent (0.5 mg/mL in medium) was added for cell staining and incubated for 4 h. Then, the remaining formazan was dissolved in DMSO by sonication. The absorbance of the test wavelength of 550 nm and the reference wavelength of 650 nm was analyzed with a microplate reader (Molecular Devices, CA, USA). IC50 of each compound was determined as the concentration of the compound that inhibits cell growth by 50%.

SIRT1 = target: T1, SIRT1 (Homo sapiens, UniProt Q96EB6); experiment: SIRT1 deacetylase activity in SH-SY5Y cell lysate; format: cell-based; conditions: for activity at 5 µM: 5 μM pretreatment 3 h, then 50 μM 6-OHDA 24 h, relative to control
T1 construct: endogenous in cells; host or cells: SH-SY5Y
T1 sequence (Q96EB6 1-747): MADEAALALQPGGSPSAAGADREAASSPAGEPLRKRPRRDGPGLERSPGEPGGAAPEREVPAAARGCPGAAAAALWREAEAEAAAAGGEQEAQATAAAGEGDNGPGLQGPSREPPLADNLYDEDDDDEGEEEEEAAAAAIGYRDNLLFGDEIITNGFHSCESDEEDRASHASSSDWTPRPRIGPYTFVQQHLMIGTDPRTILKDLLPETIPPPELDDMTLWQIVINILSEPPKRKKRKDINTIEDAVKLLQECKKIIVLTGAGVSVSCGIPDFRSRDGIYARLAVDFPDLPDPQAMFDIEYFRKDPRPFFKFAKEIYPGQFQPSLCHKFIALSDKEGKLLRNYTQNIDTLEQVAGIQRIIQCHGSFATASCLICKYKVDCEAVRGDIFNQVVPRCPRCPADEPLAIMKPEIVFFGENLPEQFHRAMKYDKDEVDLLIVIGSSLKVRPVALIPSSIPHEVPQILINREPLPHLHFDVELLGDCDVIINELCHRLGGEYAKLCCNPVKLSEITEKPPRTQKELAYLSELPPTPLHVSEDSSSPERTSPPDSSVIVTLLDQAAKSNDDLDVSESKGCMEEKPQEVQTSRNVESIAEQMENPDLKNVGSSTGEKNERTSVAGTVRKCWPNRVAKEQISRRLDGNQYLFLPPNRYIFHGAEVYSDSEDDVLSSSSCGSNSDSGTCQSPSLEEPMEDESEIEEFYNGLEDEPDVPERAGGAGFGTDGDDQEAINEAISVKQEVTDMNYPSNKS
Description: SH-SY5Y neuronal cells at 1.0 × 10^5 cells/mL were seeded into 6-well plates for 24 h. Then, the cells were pretreated with 5 μM 1,2,3-triazole-based sulfonamide derivatives for 3 h before neurotoxicity was induced with 50 μM 6-OHDA for another 24 h. The cell culture medium was rinsed off with cold 1X PBS. The cells were incubated at 4 °C with 1X RIPA buffer containing a protease inhibitor for 20 min before being harvested using a cell scraper, followed by centrifugation at 12,000 rpm for 20 min. Protein concentrations were measured using the Bradford protein assay, and SIRT1 activity in the cells was determined following the manufacturer’s instructions. The increase in SIRT1 enzyme activity was measured by fluorescence intensity at an excitation wavelength of 340 nm and an emission wavelength of 445 nm. SIRT1 enzyme activity was statistically analyzed as a percentage relative to the control group.

[2] = system: 6-OHDA-induced SH-SY5Y neuronal cells; experiment: Neuroprotection: cell viability of 6-OHDA-induced SH-SY5Y cells, MTT assay; format: cell-based, Human; conditions: then 50 μM 6-OHDA 24 h
Description: (§1) Prior to investigations, 1.0 × 10^5 SH-SY5Y neuronal cells/mL were seeded into 96-well plates for 24 h. To determine the optimal concentration of 6-OHDA for inducing neurotoxicity, cells were seeded into 96-well plates for 24 h and treated with various concentrations of 6-OHDA ranging from 25 to 125 μM for another 24 h. For the evaluation of the cytotoxicity of 1,2,3-triazole-based sulfonamide derivatives on SH-SY5Y neuronal cells, the cells were treated with various concentrations (0.1–10 μM) of 1,2,3-triazole-based sulfonamide derivatives for 24 h.^29 To assess the neuroprotective activity of 1,2,3-triazole-based sulfonamide derivatives, the cells were pretreated with various concentrations (0.1–10 μM) of 1,2,3-triazole-based sulfonamide derivatives for 3 h before being treated with 50 μM of 6-OHDA for another 24 h. Cell viability was assessed by incubating with 5 mg/mL of MTT reagent for 3 h at 37 °C, followed by absorbance measurement at 570 nm using a microplate reader (Thermo Fisher Scientific Inc., MA, USA). The viability of SH-SY5Y cells at each concentration was analyzed as a percentage relative to the control group.

[3] = system: 6-OHDA-induced SH-SY5Y neuronal cells; experiment: Cellular leakage of LDH enzyme; format: cell-based, Human; conditions: percentage of control; for LDH leakage (LDH activity): 5 μM pretreatment 3 h, then 50 μM 6-OHDA 24 h
Description: Leakage of LDH, an enzyme commonly used as an assessment factor to evaluate cellular damage, was measured to determine the protective ability of the compounds against 6-OHDA-induced neuronal damage. 1.0 × 10^5 cells/mL of SH-SY5Y neuronal cells were seeded into 6-well plates for 24 h. The cells were pretreated with 5 μM of 1,2,3-triazole-based sulfonamide derivatives for 3 h before being treated with 50 μM of 6-OHDA for 24 h. The cell culture medium of SH-SY5Y cells was collected, and LDH leakage was evaluated using the LDH assay kit. In the presence of LDH, lactate is converted into pyruvate, resulting in an elevated level of NADH production, which is determined via the change in absorbance at 450 nm. LDH activity was calculated according to the manufacturer’s instructions and shown as a percentage of the control group.

[4] = system: 6-OHDA-induced SH-SY5Y neuronal cells; experiment: Intracellular ROS production, H2DCFDA assay; format: cell-based; conditions: Homo sapiens, relative to control; for activity at 5 µM: 5 μM pretreatment 3 h, then 50 μM 6-OHDA 24 h
Description: ROS production in SH-SY5Y neuronal cells was investigated using H2DCFDA. 1.0 × 10^5 cells/mL of SH-SY5Y neuronal cells were seeded into 96-well plates for 24 h, and 5 μM of selected 1,2,3-triazole-based sulfonamide derivatives were pretreated for 3 h. Then, neurotoxicity of the cells were induced with 50 μM of 6-OHDA for another 24 h. The neuronal cells with 10 μM H2DCFDA were incubated for 30 min at 37 °C in the dark. The emission and excitation wavelengths of 528 nm and 485 nm, respectively, were measured by using a microplate reader. The measured ROS production was calculated as a percentage relative to the control group.

[5] = Cytotoxicity of 6-OHDA against SH-SY5Y cells, MTT assay; format: cell-based; conditions: human, SH-SY5Y neuronal cells, relative to control, read-out: cell viability; for viability at 24 h: 6-OHDA
Description: as §1

Row | Compound | IC50 [1] [µM] | activity at 5 µM (SIRT1) [%] | cell viability of 6-OHDA-induced cells ([2]; pretreatment 1 μM 3 h) [%] | cell viability of 6-OHDA-induced cells ([2]; pretreatment 5 μM 3 h) [%] | LDH leakage (LDH activity) [3] [%] | activity at 5 µM [4] [%] | other results
1 | O=S(=O)(NCCc1ccccc1)c1ccc(-n2cc(-c3ccccc3)nn2)cc1 [1a] | 103 ± 1.31 | – | – | – | – | – | –
2 | O=S(=O)(c1ccc(-n2cc(COc3ccccc3)nn2)cc1)N1CCc2ccccc2C1 [1b] | 59 ± 3.69 | – | – | – | – | – | –
3 | O=c1ccc2ccc(OCc3cn(-c4cccc(S(=O)(=O)N5CCc6ccccc6C5)c4)nn3)cc2o1 [1c] | 14.4 ± 0.34 | – | – | – | – | – | –
4 | Cc1ccc(OCc2cn(-c3ccc(S(=O)(=O)NCCc4ccccc4)cc3)nn2)cc1 [2a] | 89.4 ± 2.95 | 91.9 ± 1.45 | 90.11 ± 5.567 | 89.25 ± 3.236 | 109.8 ± 3.826 | 102 ± 4.74 | –
5 | Cc1ccc(OCc2cn(-c3ccc(S(=O)(=O)N4CCc5ccccc5C4)cc3)nn2)cc1 [2b] | 70.4 ± 6.8 | – | – | – | – | – | –
6 | O=c1cc(OCc2cn(-c3cccc(S(=O)(=O)N4CCc5ccccc5C4)c3)nn2)c2ccccc2o1 [2c] | > 97.2 | – | – | – | – | – | –
7 | O=Cc1ccc(OCc2cn(-c3ccc(S(=O)(=O)NCCc4ccccc4)cc3)nn2)cc1 [3a] | > 108 | 92.5 ± 1.98 | 85.36 ± 4.615 | 87.69 ± 4.276 | 112.6 ± 2.585 | 103 ± 4.94 | –
8 | O=Cc1ccc(OCc2cn(-c3ccc(S(=O)(=O)N4CCc5ccccc5C4)cc3)nn2)cc1 [3b] | > 105 | 94.3 ± 3.28 | 89.37 ± 4.597 | 90.41 ± 7.193 | 115.6 ± 2.926 | 103 ± 5.8 | –
9 | COc1cc2c(cc1OC)CN(S(=O)(=O)c1cccc(-n3cc(COc4ccc5ccc(=O)oc5c4)nn3)c1)CC2 [3c] | > 87 | – | – | – | – | – | –
10 | O=[N+]([O-])c1ccc(OCc2cn(-c3ccc(S(=O)(=O)NCCc4ccccc4)cc3)nn2)cc1 [4a] | 80.4 ± 3.79 | 92.9 ± 3.19 | 88.68 ± 3.959 | 85.48 ± 4.470 | 113.3 ± 6.585 | 103 ± 5.15 | –
11 | Cc1ccccc1OCc1cn(-c2ccc(S(=O)(=O)N3CCc4ccccc4C3)cc2)nn1 [4b] | 19 ± 0.89 | 91.06 ± 0.589 | 88.69 ± 4.465 | 84.03 ± 1.563 | 113.5 ± 2.954 | 102 ± 5.64 | –
12 | COc1cc2c(cc1OC)CN(S(=O)(=O)c1cccc(-n3cc(COc4cc(=O)oc5ccccc45)nn3)c1)CC2 [4c] | > 87 | – | – | – | – | – | –
13 | Cc1ccccc1OCc1cn(-c2ccc(S(=O)(=O)NCCc3ccccc3)cc2)nn1 [5a] | > 111 | 93.7 ± 2.54 | 91.89 ± 9.100 | 90.88 ± 6.158 | 116.0 ± 2.698 | 104 ± 4.42 | –
14 | CC(=O)c1ccccc1OCc1cn(-c2ccc(S(=O)(=O)N3CCc4ccccc4C3)cc2)nn1 [5b] | 15.4 ± 1.1 | – | – | – | – | – | –
15 | NCCc1cc(O)c(O)cc1O [6-OHDA, 6-hydroxydopamine] | – | – | – | – | – | – | activity at 50 µM (SIRT1; 24 h, read-out: SIRT1 activity): 78.8 ± 3.74%; LDH activity ([3]; 50 μM 6-OHDA alone, 24 h): 132.4 ± 5.089%; viability at 24 h, 25 μM ([5]; 6-OHDA 25 μM (first of five concentrations 25–125 μM)): 90 ± 2.81%; viability at 24 h, 125 μM ([5]; 6-OHDA 125 μM (fifth of five concentrations 25–125 μM)): 54.4 ± 3.06%; viability at 24 h ([5]; fourth of five concentrations 25–125 μM): 56.2 ± 2.37%; viability at 24 h ([5]; second of five concentrations 25–125 μM): 78.5 ± 2.73%; viability at 24 h ([5]; third of five concentrations 25–125 μM): 61.6 ± 2.44%; activity at 50 µM ([4]; 50 μM 6-OHDA alone, 24 h): 119 ± 4.75%
16 | O=c1ccc2ccc(OCc3cn(-c4ccc(S(=O)(=O)NCCc5ccccc5)cc4)nn3)cc2o1 [6a] | 55.3 ± 1.45 | – | – | – | – | – | –
17 | O=c1cc(OCc2cn(-c3ccc(S(=O)(=O)N4CCc5ccccc5C4)cc3)nn2)c2ccccc2o1 [6b] | > 97.2 | – | – | – | – | – | –
18 | O=c1cc(OCc2cn(-c3ccc(S(=O)(=O)NCCc4ccccc4)cc3)nn2)c2ccccc2o1 [7a] | > 99.5 | – | – | – | – | – | –
19 | COc1ccc(CCNS(=O)(=O)c2ccc(-n3cc(-c4ccccc4)nn3)cc2)cc1OC [8a] | 78.8 ± 8.11 | – | – | – | – | – | –
20 | COc1cccc2c1C(=O)c1c(O)c3c(c(O)c1C2=O)C[C@@](O)(C(=O)CO)C[C@@H]3O[C@H]1C[C@H](N)[C@H](O)[C@H](C)O1 [Doxorubicin, reference compound] | 2.57 ± 0.36 | – | – | – | – | – | –
21 | Oc1ccc(/C=C/c2cc(O)cc(O)c2)cc1 [Resveratrol, reference compound] | – | 92.6 ± 1.06 | 88.04 ± 6.146 | 92.06 ± 9.069 | 115.6 ± 2.723 | 101 ± 5.5 | cell viability of 6-OHDA-induced cells ([2]; pretreatment 0.1 μM (first of four concentrations 0.1–10 μM) 3 h): 90.01 ± 4.738%; cell viability of 6-OHDA-induced cells ([2]; pretreatment 10 μM (last of four concentrations 0.1–10 μM) 3 h): 90.47 ± 9.763%
